# Measured values taken from patent publication US20050143427A1, “[B]-fused bicyclic proline derivatives and their use for treating arthritic conditions” (priority 2003, published 2005).
# Like-named read-outs stand apart in the source and are kept apart here.
# How the values were obtained:
# [1] = Drug plasma half-life assay (DPH-LA) and bioavailability in rat; assay type: in vivo; settings: male
# Description: Three fasted male Sprague-Dawley rats are dosed by intravenous infusion via cannula over 5 minutes of 3 mg/kg of invention compound in 1.0 mL saline solution, and the cannulas were each rinsed with 1.0 mL saline solution immediately following infusion. Animals are fed at 4 hours post dose. Blood samples are collected by conventional means in tubes containing ethylenediaminetetraacetic acid (“EDTA”) at Times 0 (predose), 0.083 (end of infusion), 0.25, 0.5, 1, 2, 4, 6, 8, 12, and 24 hours post dose. Plasma is separated from the blood and stored frozen until analyzed by conventional high performance liquid chromatography, whereby 5.0 ng/mL was the lower limit of quantitation.
# Three fasted male Wistar rats are dosed by oral gavage with optionally 5 mg/kg, 30 mg/kg, or 300 mg/kg of invention compound. Animals are fed at 4 hours post dose. Blood samples are collected by conventional means in tubes containing EDTA at Times 0 (predose), 0.5, 1, 2, 4, 6, 8, 12, and 24 hours post dose. Plasma is separated from the blood and stored frozen until analyzed.
# Mean plasma half-life was determined by thawing and assaying the plasma samples using high performance liquid chromatography by conventional means. A concentration of test compound of 5.0 ng/mL was the lower limit of quantitation.
# Plasma half-life was calculated as the time in hours by conventional means. Drug quantitation is done by comparison to standard samples containing known amounts of test compound.
# Mean bioavailability for test compound was determined by calculating area under the concentration-time curve (“AUC”) Extrap using conventional methods.
# [2] = system: MIA Rat (monosodium iodoacetate-induced osteoarthritis, right knee joint); assay: Monosodium iodoacetate-induced osteoarthritis in rat model of joint cartilage damage (MIA Rat); assay type: in vivo; settings: for % I @ 30 mg/kg BID (%) (± SEM): inhibition of loss of hind limb joint function in MIA at Day 14: 30 mg/kg BID oral
# Description: One end result of the induction of osteoarthritis in this model, as determined by histologic analysis, is the development of an osteoarthritic condition within the affected joint, as characterized by the loss of Toluidine blue staining and formation of osteophytes. Associated with the histologic changes is a concentration-dependent degradation of joint cartilage, as evidenced by affects on hind-paw weight distribution of the limb containing the affected joint, the presence of increased amounts of proteoglycan or hydroxyproline in the joint upon biochemical analysis, or histopathological analysis of the osteoarthritic lesions.
# The invention compounds typically are not effective for relieving joint pain when administered in an acute model, such as the instant MIA Rat model, which has a duration of just 14 or 28 days.
# Generally, In the MIA Rat model on Day 0, the hind-paw weight differential between the right arthritic joint and the left healthy joint of male Wistar rats (150 g) are determined with an incapacitance tester, model 2KG (Linton Instrumentation, Norfolk, United Kingdom). The incapacitance tester has a chamber on top with an outwardly sloping front wall that supports a rat's front limbs, and two weight sensing pads, one for each hind paw, that facilitates this determination. Then the rats are anesthetized with isofluorine, and the right, hind leg knee joint is injected with 1.0 mg of mono-iodoacetate (“MIA”) through the infrapatellar ligament. Injection of MIA into the joint results in the inhibition of glycolysis and eventual death of surrounding chondrocytes. The rats are further administered either an invention compound or vehicle (in the instant case, water) daily for 14 days or 28 days.
# The invention compound is typically administered at a dose of 30 mg of per kilogram of rat per day (30 mg/kg/day), but may be administered at other doses such as, for example, 10 mg/kg/day, 60 mg/kg/day, 90-mg/kg/day, or 100 mg/kg/day according to the requirements of the invention compound being studied. It is well within the level of ordinary skill in the pharmaceutical arts to determine a proper dosage of an invention compound in this model.
# Administration of an invention compound in this model is optionally by oral administration or by intravenous administration via an osmotic pump. After 7 and 14 days for a two week study, or 7, 14, and 28 days for a four week study, the hind-paw weight distribution is again determined. Typically, the animals administered vehicle alone place greater weight on their unaffected left hind paw than on their right hind paw, while animals administered an invention compound show a more normal (i.e., more like a healthy animal) weight distribution between their hind paws. This change in weight distribution was proportional to the degree of joint cartilage damage. Percent inhibition of a change in hind paw joint function is calculated as the percent change in hind-paw weight distribution for treated animals versus control animals. For example, for a two week study, [formula] wherein: ΔWC is the hind-paw weight differential between the healthy left limb and the arthritic limb of the control animal administered vehicle alone, as measured on Day 14; and • ΔWG is the hind-paw weight differential between the healthy left limb and the arthritic limb of the animal administered an invention compound as measured on Day 14.
# In order to measure biochemical or histopathological end points in the MIA Rat model, some of the animals in the above study may be sacrificed, and the amounts of free proteoglycan in both the osteoarthritic right knee joint and the contralateral left knee joint may be determined by biochemical analysis. The amount of free proteoglycan in the contralateral left knee joint provides a baseline value for the amount of free proteoglycan in a healthy joint. […]
# [3] = molecular target: pig alpha-2-delta receptor 1 (A2DR1) (Sus scrofa, UniProt A0A287BIN3); assay: [3H]Gabapentin scintillant proximity A2DR1 binding assay (A2DR1 SPA, Biological Method 5); settings: displacement of [3H]-gabapentin
# Description: (§1) Recombinant HEK 293 cells expressing pig A2DR1 and A2DR2 subunits were grown under normal cell culture conditions (RPMI-1640 media with 10% FBS, 200 μg G418, and 1% penicillin/streptomycin 1t 37° C. with 5% CO2) until reaching confluency in T-75 flasks, at which time they were harvested. The harvested cells were suspended in ice-cold 5 mM Tris/5 mM ethylenediaminetetraacetic acid (“EDTA”) buffer, pH 7.4 (“TE buffer”) containing phenylmethylsulfonyl fluoride (“PMSF”) (0.1 mM) and Roche Complete Protease Inhibitor Cocktail, and allowed to sit on ice for 30 minutes. The cells were broken by sonication using 20 bursts, 40-50 cycles, and then centrifuged at 3000×g for 10 minutes. The resulting supernatant was transferred to a new tube and centrifuged at 50,000×g for 30 minutes. The resulting pellet was resuspended in 10 mM HEPES buffer, pH 7.4, homogenized, and stored at—80° C. The A2DR1 or A2DR2 membrane protein concentration was determined by the Pierce BCA method using bovine serum albumin (“BSA”) as the standard.
# (§2) The [^3H]gabapentin SPA binding assay was performed in Costar 3632 96-well, clear bottom assay plates using Wheatgerm agglutinin beads (Amersham Pharmacia Biotech). Pig A2DR1 or A2DR2 membranes (10-20 μg protein per well) prepared above in Step (1) and SPA beads (0.5 mg per well) were mixed with 30 nM [^3H]gabapentin (52 Ci/mmol; Amersham Pharmacia Biotech) in 10 mM HEPES/10 mM MgSO4 assay buffer, pH 7.4 using KOH. The final well volume was 200 μL and non-specific binding was determined in the presence of 10 μM unlabeled pregabalin. The final mixture containing A2DR1 or A2DR2 membrane protein incubated with SPA beads, test compounds, and [^3H]gabapentin was incubated at room temperature for 15-24 hours, and the plates were then counted on a Wallace Trilux 1450 Microbeta scintillation counter. Step (3): Determination of IC50 values
# (§3) Curve fitting and IC50 values were calculated using a four-parameter, non-linear regression equation from GraphPad Prism 3.0 software, while Ki values were determined using the equation of Chang and Prussoff.
# [4] = molecular target: pig alpha-2-delta receptor 2 (A2DR2) (UniProt A0A8W4FF87); assay: [3H]Gabapentin scintillant proximity A2DR2 binding assay (A2DR2 SPA, Biological Method 5); settings: displacement of [3H]-gabapentin
# Description: as §1, §2, §3
# [5] = molecular target: T1, alpha-2-delta receptor 2 (A2DR2) (Homo sapiens, UniProt Q9NY47); assay: [3H]Gabapentin A2DR2 binding assay (filter, Biological Method 4); settings: displacement of [3H]-gabapentin
# T1 construct: expressed in transfected cells; host or cells: HEK 293 (membrane preparation)
# Description: HEK 293 recombinant cells expressing A2DR1 or A2DR2 protein are harvested and washed in phosphate buffered saline (“PBS”). The cells are centrifuged and resuspended in tris(hydroxymethyl)aminomethane-ethylenediaminetetraacetic acid (“Tris-EDTA” or “TE”) buffer containing Roche Complete Protease Inhibitor Cocktail. The cells are homogenized, centrifuged at 3000×g, and the supernatant centrifuged again at 50,000×g. The resulting pellet is resuspended and homogenized in TE. Following determination of A2DR1 or A2DR2 protein concentration, aliquots are stored at −70° C. until the day of testing (membrane preparation may be used for at least 6 months).
# In one version, the binding assay is set up in a 96-well format using deep-well polypropylene plates. In a total volume of 500 μL, the following additions are made: 250 μL buffer [[…] N-2-hydroxyethylpiperazine-N′-2-ethanesulfonic acid (“HEPES”), pH 7.4], 25 μL [3H]gabapentin (10 nM final concentration), 200 μL thawed tissue membrane preparation from Step (1) (˜40 μg protein), and 25 μL of test compound at 7 test dilutions (for example, 0.001, 0.01, 0.03, 0.1, 0.3, 1.0, and 10 μM concentrations). Non-specific binding for each plate is determined by the addition of 10 μM of pregabalin instead of test compound in a few of the 96 wells. Following incubation for 45 minutes at 21° C., the contents of the wells are filtered under vacuum onto glass filter/B (“GF/B”) filter mats and then washed 4×1 mL with chilled 50 mM tris(hydroxymethyl)aminomethane (“Tris”) HCl, pH 6.9. The mats are placed into plastic pouches, scintillation cocktail is added, the pouches are sealed, and radioactivity for each sample is counted.
# Specific binding values for each concentration are transformed and then analyzed by a 4-parameter nonlinear regression equation provided by Prism graphics software by Graph Pad to determine IC50 values by conventional means.
# Sequence of pig alpha-2-delta receptor 1 (A2DR1) (A0A287BIN3 1-1109): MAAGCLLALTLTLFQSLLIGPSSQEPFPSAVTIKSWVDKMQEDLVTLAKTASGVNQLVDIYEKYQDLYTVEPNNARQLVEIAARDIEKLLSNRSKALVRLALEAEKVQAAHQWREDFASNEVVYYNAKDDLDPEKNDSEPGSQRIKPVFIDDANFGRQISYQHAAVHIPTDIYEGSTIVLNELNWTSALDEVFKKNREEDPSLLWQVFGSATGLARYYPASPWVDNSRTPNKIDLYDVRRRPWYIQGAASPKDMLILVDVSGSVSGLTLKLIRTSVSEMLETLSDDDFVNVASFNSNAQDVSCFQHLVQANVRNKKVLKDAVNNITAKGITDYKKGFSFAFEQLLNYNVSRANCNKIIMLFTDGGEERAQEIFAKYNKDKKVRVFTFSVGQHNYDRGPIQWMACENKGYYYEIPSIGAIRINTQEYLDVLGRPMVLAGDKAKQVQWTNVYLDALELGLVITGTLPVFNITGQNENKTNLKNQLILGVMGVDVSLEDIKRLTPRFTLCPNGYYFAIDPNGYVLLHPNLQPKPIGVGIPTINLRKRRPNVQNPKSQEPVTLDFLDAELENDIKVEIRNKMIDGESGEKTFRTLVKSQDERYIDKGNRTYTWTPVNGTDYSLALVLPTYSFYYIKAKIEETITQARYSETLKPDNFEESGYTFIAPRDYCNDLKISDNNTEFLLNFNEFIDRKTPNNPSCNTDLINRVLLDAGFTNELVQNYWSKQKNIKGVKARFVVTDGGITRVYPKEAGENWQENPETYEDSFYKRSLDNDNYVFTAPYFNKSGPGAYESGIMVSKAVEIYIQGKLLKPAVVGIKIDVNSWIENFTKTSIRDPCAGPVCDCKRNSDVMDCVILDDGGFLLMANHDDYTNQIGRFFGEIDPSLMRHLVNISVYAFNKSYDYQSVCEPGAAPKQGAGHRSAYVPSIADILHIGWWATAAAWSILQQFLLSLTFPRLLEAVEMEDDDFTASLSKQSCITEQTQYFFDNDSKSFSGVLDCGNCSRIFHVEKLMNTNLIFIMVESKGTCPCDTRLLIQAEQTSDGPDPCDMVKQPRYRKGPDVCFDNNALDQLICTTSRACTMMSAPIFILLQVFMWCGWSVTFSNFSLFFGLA
# T1 sequence (Q9NY47 19-1150): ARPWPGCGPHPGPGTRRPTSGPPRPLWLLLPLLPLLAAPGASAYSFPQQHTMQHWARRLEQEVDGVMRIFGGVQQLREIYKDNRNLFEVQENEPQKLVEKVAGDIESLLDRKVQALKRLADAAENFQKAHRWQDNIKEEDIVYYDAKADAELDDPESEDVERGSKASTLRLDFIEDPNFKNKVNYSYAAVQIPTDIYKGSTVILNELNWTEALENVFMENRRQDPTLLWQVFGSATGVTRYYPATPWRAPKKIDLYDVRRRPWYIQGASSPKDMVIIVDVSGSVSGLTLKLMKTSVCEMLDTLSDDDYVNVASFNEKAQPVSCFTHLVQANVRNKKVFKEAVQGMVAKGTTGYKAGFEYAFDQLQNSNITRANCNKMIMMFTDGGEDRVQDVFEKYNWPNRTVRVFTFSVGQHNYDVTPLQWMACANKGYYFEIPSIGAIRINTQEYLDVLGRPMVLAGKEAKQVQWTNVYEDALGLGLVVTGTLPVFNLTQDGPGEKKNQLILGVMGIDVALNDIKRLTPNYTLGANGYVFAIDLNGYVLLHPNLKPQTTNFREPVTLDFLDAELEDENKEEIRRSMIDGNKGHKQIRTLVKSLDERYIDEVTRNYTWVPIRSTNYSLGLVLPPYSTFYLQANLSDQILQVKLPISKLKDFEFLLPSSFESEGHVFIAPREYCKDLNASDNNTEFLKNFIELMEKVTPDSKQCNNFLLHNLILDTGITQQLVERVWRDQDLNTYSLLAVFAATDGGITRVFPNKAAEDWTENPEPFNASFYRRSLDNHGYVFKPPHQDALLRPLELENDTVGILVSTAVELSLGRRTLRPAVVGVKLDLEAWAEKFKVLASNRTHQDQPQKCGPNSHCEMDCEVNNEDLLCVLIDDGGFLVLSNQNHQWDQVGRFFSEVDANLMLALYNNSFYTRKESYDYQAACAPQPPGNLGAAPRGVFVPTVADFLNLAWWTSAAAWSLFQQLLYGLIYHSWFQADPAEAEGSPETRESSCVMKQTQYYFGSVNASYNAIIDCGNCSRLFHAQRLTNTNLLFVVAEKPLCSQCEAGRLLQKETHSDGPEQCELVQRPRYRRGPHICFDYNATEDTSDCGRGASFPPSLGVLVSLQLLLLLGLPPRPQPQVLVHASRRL
SMILES,IC50 [3],IC50 [4],further results
CN1[C@H](C(=O)O)C[C@@H]2CCCC[C@@H]21.Cl [A1],,,"bioavailability ([1]; Wistar, in vivo, po, administered orally, rat (footnote of Table 2), read-out: bioavailability): 63%; half-life ([1]; Wistar, rat, in vivo, po, administered orally, rat (footnote of Table 2), read-out: half-life): 10 h"
CN1[C@H](C(=O)O)C[C@@H]2CCCC[C@@H]21.Cl [Example A1],≥ 10 µM,≥ 10 µM,"% I @ 30 mg/kg BID (%) (± SEM): inhibition of loss of hind limb joint function in MIA at Day 14 ([2]; 2-week MIA study, Day 14, rat): 59 ± 17%; bioavailability ([1]; Wistar, in vivo, rat, PO, 30 mg/kg, read-out: Mean Bioavailability): 63%; half-life ([1]; Wistar, rat, in vivo, po, 30 mg/kg, rat plasma, PO, 30 mg/kg, read-out: Mean T1/2 (converted)): 25.3 h; half-life ([1]; Wistar, rat, in vivo, po, 300 mg/kg, rat plasma, PO, 300 mg/kg, read-out: Mean T1/2 (converted)): 11.1 h"
CCN1[C@H](C(=O)O)C[C@@H]2CCCC[C@@H]21 [Example A3],≥ 10 µM,≥ 10 µM,
CCCN1[C@H](C(=O)O)C[C@@H]2CCCC[C@@H]21 [Example A5],≥ 10 µM,≥ 10 µM,
CC(C)CN1[C@H](C(=O)O)C[C@@H]2CCCC[C@@H]21 [Example A6],≥ 10 µM,≥ 10 µM,
COCCN1[C@H](C(=O)O)C[C@@H]2CCCC[C@@H]21 [Example A7],≥ 10 µM,≥ 10 µM,
CS(=O)(=O)NC(=O)[C@@H]1C[C@@H]2CCCC[C@@H]2N1 [Example E1],≥ 10 µM,≥ 10 µM,
O=c1[nH]c([C@@H]2C[C@@H]3CCCC[C@@H]3N2)no1 [Example F1],,,"% I @ 30 mg/kg BID (%) (± SEM): inhibition of loss of hind limb joint function in MIA at Day 14 ([2]; 2-week MIA study, Day 14, rat): (i) 82^2; %; IC50 [5]: ≥ 10 µM"
COC1CCC2CC(C(=O)O)NC2C1 (centres unmarked) [Example O3],,,IC50 [5]: 2.23 µM
O=C(O)C1CC2C(CCCC2C(F)(F)F)N1 (centres unmarked) [Example O10],≥ 10 µM,≥ 10 µM,"% I @ 10 mg/kg/day (%) (± SEM): inhibition of loss of hind limb joint function in MIA at Day 14 ([2]; 10 mg/kg/day via osmotic pump, 2-week MIA study, Day 14, rat): 0%"
O=c1[nH]c([C@@H]2C[C@@H]3CCCC[C@@H]3N2)no1 [F1],,,"% I (%) (± SEM): inhibition of loss of hind limb joint function in MIA at Day 14 ([2]; via Alzet osmotic pump (footnote 3), Day 14, rat): (ii) 59 ± 9^3%"
"O=C(O)[C@@H]1C[C@@H]2CCCC[C@@H]2N1 [OHI2CA, (2S,3aS,7aS)-octahydroindole-2-carboxylic acid, reference compound]",0.11 µM,0.6 µM,"half-life ([1]; Sprague-Dawley, rat plasma, IV, 3 mg/kg, read-out: Mean T1/2 (converted)): 4.01 h; bioavailability ([1]; Wistar, plasma, po, administered orally, rat (footnote of Table 2), read-out: bioavailability): 72%; half-life ([1]; Wistar, plasma, po, administered orally, rat (footnote of Table 2), read-out: half-life): 4 h; bioavailability ([1]; Wistar, plasma, rat, PO, 5 mg/kg, read-out: Mean Bioavailability): 72%; half-life ([1]; Wistar, rat plasma, PO, 5 mg/kg, read-out: Mean T1/2 (converted)): 3.78 h"
"CN1[C@H](C(=O)O)C[C@@H]2CCCC[C@@H]21 [[2(S),3a(S),7a(S)]-1-methyl-2,3,3a,4,5,6,7,7a-octahydroindole-2-carboxylic acid]",,,"degree of structural damage to the cartilage ([2]; 30 mg/kg and 10 mg/kg doses, PO BID, 4 weeks post-MIA): significantly decreased; cartilage erosion severity ([2]; 30-mg/kg and 10-mg/kg doses, PO BID, MIA rat): significantly decrease; joint function limitations (differential hind-limb weight bearing) ([2]; PO BID, MIA rat): decrease joint function limitations; joint pain ([2]; all doses (3 to 30 mg/kg PO BID), 4 weeks post-MIA): significantly decreased"

# Now from value to compound, other results behind:
IC50 [3],IC50 [4],SMILES,further results
1.3 µM,4.5 µM,CCC1CCC2CC(C(=O)O)NC2C1 (centres unmarked) [Example O1],
≥ 10 µM,≥ 10 µM,CC(C)(C)C1CCC2NC(C(=O)O)CC2C1 (centres unmarked) [Example O8],
2.6 µM,≥ 10 µM,O=C(O)[C@]12C[C@H]1[C@@H]1CCCC[C@@H]1N2 [Example Q1],
0.29 µM,1.4 µM,CN(C)CC(C)(C)COC(=O)C1C[C@@H]2CCCC[C@@H]2N1 (some centres unmarked) [Example Y1],
